Source: patent US12264156B2, “Compounds and pharmaceutical compositions thereof for the treatment of diseases” (GALAPAGOS NV, priority 2018, dated 2025)

Experiments:
[1] = system: LPS triggered IL-10 secretion in monocytes; assay: Monocytes assay: LPS-triggered IL-10 (ELISA); type: cell-based, human; conditions: LPS 200 ng/mL, supernatant after 4 h, maximal fold change vs LPS only
Procedure: (§1) SIK inhibition inhibits TNFα and increases IL-10 release in LPS triggered monocyte-derived macrophages (MdM) and dendritic cells (MdDCs) (Clark et al. 2012; Sundberg et al. 2014; Ozanne et al. 2015). This assay evaluates illustrative compounds of the invention for their inhibition of LPS-induced TNFα and LPS triggered IL-10 secretion in monocytes.
(§2) PBMCs are isolated from human blood samples (buffycoats). The buffy coat is aseptically transferred into a 50 mL Falcon tube, and diluted 1/2 in PBS. Falcon tubes are filled with 20 mL Lymphoprep™, on top of which 25 mL of the buffy coat is carefully added, tubes are centrifuged for 35 min at 400 g in temperature controlled centrifuge, without brake, at 25° C. PBMCs are aspirated from the white interface layer between sample and Lymphoprep™. PBMCs are washed five times in PBS. Cells are resuspended in RPMI 1640 complete medium supplemented with 10% FBS, 1% P/S, and cell density is determined using a hematologic analyzer (Sysmex XS-500i).
(§3) PBMCs are centrifuged at 300×g for 10 min and resuspended at a density of 1.0*10^7 cells/80 μL Miltenyi buffer (PBS, pH 7.4, 1% FBS, 2 mM EDTA).
(§4) Starting from this point of the protocol all steps are performed on ice. 20 μL of CD14+ micro-beads are added per 1.0*10^7 cells, the tube is mixed and incubated for 15 min in the fridge at 4° C. Cell suspension volume is adjusted to total volume of 100 mL using Miltenyi buffer, mixed gently and subsequently centrifuged for 10 min at 300×g. Supernantant is discarded and cell pellet is resuspended in 12 mL of Miltenyi buffer.
(§5) Four LS columns are placed in the MACS Separator (magnet) from Miltenyi Biotec, and are prewet by rinsing with 3 mL of MACS buffer per column. Three mL of cell suspension is added onto the column (max 1*10^8 of labelled cells/column), and columns are subsequently washed 3 times with 3 mL of Miltenyi buffer.
(§6) The columns are removed from the magnets, and 5 mL of Miltenyi buffer are added to the column to flush out the CD14+ fraction by pushing the plunger into the column. The flushed fractions are collected in a fresh 50 mL Falcon and volume is adjusted to 30 mL using Miltenyi buffer, cells are centrifuged for 10 min at 300×g. The obtained cell pellet is resuspended in 10 mL RPMI w/o FBS, and cell density is determined using a hematologic analyser (Sysmex XS-500i). 100 000 cells are seeded in 80 μL per well of a 96-well plate in RPMI 1640 medium supplemented with 10% FBS, 1% P/S.
(§7) A compound dilution plate is made in 100% DMSO by 3-fold dilution of 10 mM stock solution. An intermediate dilution plate (10× final concentration) is made by diluting the compound dilution plate 50-fold in RPMI medium.
(§8) 10 μL of the 10× final concentration compound is added to the cells and incubated for 1 h at 37° C. before addition of trigger. No trigger conditions/trigger conditions are spiked with equal final DMSO concentrations of 0.2% DMSO. 10 μL of 10×LPS (final conc. 200 ng/mL) solution are added to all wells except for the ‘no trigger wells’ where 10 μL medium is added. Supernatant is collected after 4 h of LPS triggering.
A Lumitrac 600 Greiner 384-well plate is coated with 40 μL of capture antibody (final concentration of 1 μg/mL in 1×PBS) and stored overnight at 4° C. The next day the plate is washed three times with PBST (PBS+0.05% Tween20) and once with PBS followed by the addition of 100 μL of blocking buffer (1% BSA−5% Sucrose) and plates are sealed and incubated for at least 4 h at RT. After washing the plate once with PBST and once with PBS, 40 μL of standard or sample are added (IL-10 standard curve is prepared using a 1/2 serial dilution starting from […]; dilutions are made in dilution buffer (PBS+1% BSA)). Plates are washed twice with PBST, and once with PBS, after which 35 μL of the detection antibody is added (final concentration 0.143 μg/mL diluted in dilution buffer) and plates are incubated for at least 2 h at RT. […]

SIK1 = molecular target: T1, SIK1 (Homo sapiens, UniProt P57059); assay: ADP-Glo kinase assay, SIK1; type: biochemical; conditions: ADP-Glo SIK kinase assay
T1 construct: purchased Carna Biosciences 02-131
T1 sequence (P57059 whole entry): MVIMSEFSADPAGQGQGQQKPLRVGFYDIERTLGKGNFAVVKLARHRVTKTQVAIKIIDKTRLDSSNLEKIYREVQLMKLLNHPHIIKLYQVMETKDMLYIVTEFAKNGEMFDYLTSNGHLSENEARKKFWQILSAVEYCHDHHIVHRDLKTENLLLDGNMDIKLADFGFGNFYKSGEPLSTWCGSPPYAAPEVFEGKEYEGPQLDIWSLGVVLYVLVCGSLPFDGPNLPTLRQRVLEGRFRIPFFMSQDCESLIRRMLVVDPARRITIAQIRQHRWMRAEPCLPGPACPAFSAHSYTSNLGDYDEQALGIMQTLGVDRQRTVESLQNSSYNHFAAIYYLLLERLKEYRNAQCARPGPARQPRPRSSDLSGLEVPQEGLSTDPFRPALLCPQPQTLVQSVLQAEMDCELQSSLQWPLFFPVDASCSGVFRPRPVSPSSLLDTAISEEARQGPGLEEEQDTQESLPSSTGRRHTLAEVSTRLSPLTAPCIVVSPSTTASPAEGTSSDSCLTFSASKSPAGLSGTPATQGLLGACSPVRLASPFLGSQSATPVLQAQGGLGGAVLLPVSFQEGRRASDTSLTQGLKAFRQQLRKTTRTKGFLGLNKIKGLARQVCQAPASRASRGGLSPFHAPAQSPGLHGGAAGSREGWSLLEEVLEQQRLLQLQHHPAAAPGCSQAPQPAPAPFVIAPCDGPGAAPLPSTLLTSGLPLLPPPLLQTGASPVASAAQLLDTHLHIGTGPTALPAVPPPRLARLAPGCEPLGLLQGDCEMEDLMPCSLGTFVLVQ
Outline: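 Enzyme–substrate mix was started with ATP and incubated 120 min at RT. ADP formed was quantified by ADP-Glo: 40 min ATP depletion, then 30 min detection reagent converting ADP to ATP for luciferase luminescence, which rises with kinase activity. Controls: 1% DMSO and 10 μM staurosporine (final).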

[2] = system: LPS-induced TNFα in monocytes; assay: Monocytes assay: LPS-triggered TNFα (ELISA); type: cell-based, human; conditions: Homo sapiens, Monocyte, LPS 200 ng/mL, supernatant after 4 h
Procedure: as §1, §2, §3, §4, §5, §6, §7, §8
A Lumitrac 600 Greiner 384-well plate is coated with 40 μL of capture antibody (BD Pharmingen, Cat #551220) reaching a final concentration of 1 μg/mL in 1×PBS and stored overnight at 4° C.
The plate is then washed once with PBST (PBS+0.05% Tween20) and once with PBS followed by the addition of 100 μL of blocking buffer (1% Bovine Serum Albumin (BSA)−5% Sucrose) and plates are sealed and incubated for at least 4 h at RT. After washing the plate once with PBST and once with PBS, […]. Plates are washed twice with PBST, and once with PBS, after which 35 μL of the detection antibody is added (final concentration 0.25 μg/mL diluted in dilution buffer) and plates are incubated for at least 2 h at RT. […]

SIK2 = molecular target: T2, SIK2 (Homo sapiens, UniProt Q9H0K1); assay: ADP-Glo kinase assay, SIK2; type: biochemical; conditions: ADP-Glo SIK kinase assay
T2 construct: purchased ThermoFisher Scientific PV4792
T2 sequence (Q9H0K1 whole entry): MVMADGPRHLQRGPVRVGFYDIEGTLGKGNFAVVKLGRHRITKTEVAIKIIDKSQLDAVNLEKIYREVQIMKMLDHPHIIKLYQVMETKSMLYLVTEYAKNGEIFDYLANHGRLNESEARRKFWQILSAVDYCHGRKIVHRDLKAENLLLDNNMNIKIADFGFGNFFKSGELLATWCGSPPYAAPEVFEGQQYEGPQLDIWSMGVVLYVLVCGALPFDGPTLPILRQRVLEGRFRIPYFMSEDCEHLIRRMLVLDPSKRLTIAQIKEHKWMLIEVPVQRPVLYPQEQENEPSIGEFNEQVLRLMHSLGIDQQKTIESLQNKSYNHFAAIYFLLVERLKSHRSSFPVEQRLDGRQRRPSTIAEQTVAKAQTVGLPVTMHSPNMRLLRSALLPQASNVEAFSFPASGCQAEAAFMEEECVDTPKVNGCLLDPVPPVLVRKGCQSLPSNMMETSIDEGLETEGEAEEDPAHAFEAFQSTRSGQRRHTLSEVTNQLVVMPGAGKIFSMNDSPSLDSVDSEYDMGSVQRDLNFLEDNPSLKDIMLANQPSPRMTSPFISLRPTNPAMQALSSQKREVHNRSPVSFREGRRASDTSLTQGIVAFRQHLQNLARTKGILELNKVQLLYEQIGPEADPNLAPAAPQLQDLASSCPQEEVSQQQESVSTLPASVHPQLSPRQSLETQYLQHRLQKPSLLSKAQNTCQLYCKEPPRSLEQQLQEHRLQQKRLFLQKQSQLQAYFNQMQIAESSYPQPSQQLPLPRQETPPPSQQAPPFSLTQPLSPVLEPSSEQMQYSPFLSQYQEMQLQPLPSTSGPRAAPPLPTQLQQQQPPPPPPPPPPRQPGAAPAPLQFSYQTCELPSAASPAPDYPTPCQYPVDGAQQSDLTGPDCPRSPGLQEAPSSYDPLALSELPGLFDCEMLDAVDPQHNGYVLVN
Outline: (§9)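 Kinase reactions (enzyme-substrate mix plus ATP) ran 120 min at room temperature for each of SIK3 and SIK2. Signal came from ADP-Glo: unconsumed ATP removed (40 min), ADP reconverted and detected by luciferase/luciferin (30 min), with luminescence tracking kinase activity. 10 μM staurosporine and 1% DMSO (final) served as controls.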

SIK3 = molecular target: T3, SIK3 (Homo sapiens, UniProt Q9Y2K2); assay: ADP-Glo kinase assay, SIK3; type: biochemical; conditions: ADP-Glo SIK kinase assay
T3 construct: purchased SignalChem S12-11G-100
T3 sequence (Q9Y2K2 whole entry): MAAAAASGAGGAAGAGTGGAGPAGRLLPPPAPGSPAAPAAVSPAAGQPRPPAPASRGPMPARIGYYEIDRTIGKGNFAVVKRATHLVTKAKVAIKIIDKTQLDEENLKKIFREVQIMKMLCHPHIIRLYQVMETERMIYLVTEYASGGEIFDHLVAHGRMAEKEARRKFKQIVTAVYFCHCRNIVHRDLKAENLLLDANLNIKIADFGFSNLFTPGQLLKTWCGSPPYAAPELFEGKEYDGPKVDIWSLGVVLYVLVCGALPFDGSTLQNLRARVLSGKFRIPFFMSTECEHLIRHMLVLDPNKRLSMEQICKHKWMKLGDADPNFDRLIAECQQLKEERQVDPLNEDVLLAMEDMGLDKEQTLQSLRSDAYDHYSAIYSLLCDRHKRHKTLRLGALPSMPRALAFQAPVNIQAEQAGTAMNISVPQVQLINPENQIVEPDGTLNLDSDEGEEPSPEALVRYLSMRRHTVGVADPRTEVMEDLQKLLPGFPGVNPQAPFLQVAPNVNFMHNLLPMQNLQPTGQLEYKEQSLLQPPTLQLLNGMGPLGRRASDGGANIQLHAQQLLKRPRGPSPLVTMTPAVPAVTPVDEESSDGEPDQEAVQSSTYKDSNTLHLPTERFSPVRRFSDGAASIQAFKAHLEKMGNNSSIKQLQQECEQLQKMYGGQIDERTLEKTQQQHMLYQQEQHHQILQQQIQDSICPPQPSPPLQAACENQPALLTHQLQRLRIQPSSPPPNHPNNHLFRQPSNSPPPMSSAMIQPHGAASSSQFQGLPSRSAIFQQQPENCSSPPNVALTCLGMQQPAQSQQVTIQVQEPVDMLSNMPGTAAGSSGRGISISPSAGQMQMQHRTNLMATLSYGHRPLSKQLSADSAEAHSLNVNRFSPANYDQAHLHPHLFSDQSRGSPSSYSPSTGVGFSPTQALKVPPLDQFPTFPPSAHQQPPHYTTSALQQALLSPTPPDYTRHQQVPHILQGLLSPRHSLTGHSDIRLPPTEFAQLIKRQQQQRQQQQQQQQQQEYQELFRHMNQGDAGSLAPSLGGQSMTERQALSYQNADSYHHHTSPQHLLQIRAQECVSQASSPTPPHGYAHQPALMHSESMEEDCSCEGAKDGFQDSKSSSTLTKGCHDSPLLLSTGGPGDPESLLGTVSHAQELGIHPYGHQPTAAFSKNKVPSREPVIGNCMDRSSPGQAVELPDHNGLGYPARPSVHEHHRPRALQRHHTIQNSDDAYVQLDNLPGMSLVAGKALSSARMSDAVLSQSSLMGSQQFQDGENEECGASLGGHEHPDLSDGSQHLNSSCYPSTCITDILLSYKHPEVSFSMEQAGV
Outline: as §9

[3] = system: LPS-induced TNFα in monocyte-derived macrophages (MdM); assay: MdM assay: LPS-triggered TNFα (ELISA); type: cell-based, human; conditions: Homo sapiens, Macrophage, 20 h, monocyte-derived macrophages, LPS 200 ng/mL, supernatant after 20 h; read-out: TNFα EC50
Procedure: This assay evaluates illustrative compounds of the invention for their inhibition of LPS-induced TNFα and LPS triggered IL-10 secretion in monocyte-derived macrophages.
as §2, with “PBS.” for “PBS. Cells are resuspended in RPMI 1640 complete medium supplemented with 10% FBS, 1% P/S, and cell density is determined using a hematologic analyzer (Sysmex XS-500i).”
as §3, §4, §5
as §6, with “XS-500i).” for “XS-500i). 100 000 cells are seeded in 80 μL per well of a 96-well plate in RPMI 1640 medium supplemented with 10% FBS, 1% P/S.”
On day 10, MdMs are triggered and compound is added.
as §7
Medium is carefully removed from cell plates using multichannel pipette, and replaced by 80 μL fresh medium. 10 μL of the 10× final concentration compound is added to the cells and incubated for 1 hour at 37° C. before addition of trigger. No trigger conditions/trigger conditions are spiked with equal final DMSO concentrations of 0.2% DMSO. 10 μL of 10×LPS (final conc. 200 ng/mL) solution are added to all wells except for the ‘no trigger wells’ where 10 μL medium is added. Supernatant is collected after 2 h (IL-10 determination) and after 20 h (TNFα determination) of LPS triggering.
The plate is then washed once with PBST (PBS+0.05% Tween20) and once with PBS followed by the addition of 100 μL of blocking buffer (1% Bovine Serum Albumin (BSA)−5% Sucrose) and plates are sealed and incubated for at least 4 h at RT. After washing the plate once with PBST and once with PBS, 40 μL of standard or sample are added (TNFα standard curve is prepared using a 1/2 serial dilution starting from […]; dilutions are made in dilution buffer (PBS+1% BSA)). Plates are washed twice with PBST, and once with PBS, after which 35 μL of the detection antibody is added (final concentration 0.25 μg/mL diluted in dilution buffer) and plates are incubated for at least 2 h at RT. Plates are washed twice with PBST, and once with PBS, where after 35 μL of Strep-HRP conjugate (0.5 μg/mL final concentration diluted in dilution buffer) is added. Plates are incubated in the dark, at RT for at least 45 min but no longer than 1 hour. Plates are washed twice with PBST, and once with PBS.

SMILES | IC50 (SIK1) | IC50 (SIK2) | IC50 (SIK3) | EC50 ([2]; 4 h) | EC50 [3] | IL-10 FCmax median [1] | EC50 [2]
COc1cc(-c2cnc3cc(OCCCN4C5CCC4COC5)ccn23)cc(OC(F)F)c1C(=O)NC1CC1 [compound 292, N-cyclopropyl-2-(difluoromethoxy)-6-methoxy-4-[7-[3-(3-oxa-8-azabicyclo[3.2.1]octan-8-yl)propoxy]imidazo[1,2-a]pyridin-3-yl]benzamide] | 10 to 100 nM | 0.01 to 10 nM | 0.01 to 10 nM | – | – | +++ (>4.5) | 0.1 to 100 nM
COc1cc(-c2cnc3cc(OCCC4CCCN4C4COC4)ccn23)cc(OC(F)F)c1C(=O)NC1CC1 (stereo not shown) [compound 299, N-cyclopropyl-2-(difluoromethoxy)-6-methoxy-4-[7-[2-[1-(oxetan-3-yl)pyrrolidin-2-yl]ethoxy]imidazo[1,2-a]pyridin-3-yl]benzamide] | 10 to 100 nM | 0.01 to 10 nM | 0.01 to 10 nM | 0.1 to 100 nM | – | +++ (>4.5) | –
COc1cc(-c2cnc3cc(OCC4CCN(C5COC5)C4)ccn23)cc(OC(F)F)c1C(=O)NC1CC1 (stereo not shown) [Cpd 288, N-cyclopropyl-2-(difluoromethoxy)-6-methoxy-4-[7-[[1-(oxetan-3-yl)pyrrolidin-3-yl]methoxy]imidazo[1,2-a]pyridin-3-yl]benzamide] | 10 to 100 nM | 0.01 to 10 nM | 0.01 to 10 nM | 0.1 to 100 nM | – | +++ (>4.5) | –
COC(=O)[C@@H]1CN(CC(O)COc2ccn3c(-c4cc(OC)c(C(=O)NC5CC5)c(OC(F)F)c4)cnc3c2)CCO1 (stereo partly drawn) [compound 388, methyl (2S)-4-[3-[3-[4-(cyclopropylcarbamoyl)-3-(difluoromethoxy)-5-methoxy-phenyl]imidazo[1,2-a]pyridin-7-yl]oxy-2-hydroxy-propyl]morpholine-2-carboxylate] | 10 to 100 nM | 0.01 to 10 nM | 0.01 to 10 nM | 100 to 1000 nM | – | +++ (>4.5) | –
COc1cc(-c2cnc3cc(OCCCN4CC5CCC(C4)O5)ccn23)cc(OC(F)F)c1C(=O)NC1CC1 [compound 291, N-cyclopropyl-2-(difluoromethoxy)-6-methoxy-4-[7-[3-(8-oxa-3-azabicyclo[3.2.1]octan-3-yl)propoxy]imidazo[1,2-a]pyridin-3-yl]benzamide] | 10 to 100 nM | 0.01 to 10 nM | 0.01 to 10 nM | 0.1 to 100 nM | – | +++ (>4.5) | –

More lines, main results first:

IC50 (SIK1) | IC50 (SIK2) | IC50 (SIK3) | EC50 ([2]; 4 h) | EC50 [3] | SMILES | IL-10 FCmax median [1] | EC50 [2]
10 to 100 nM | 0.01 to 10 nM | 0.01 to 10 nM | 1000 to 5000 nM | – | COc1cc(-c2cnc3cc(OCCCN4CCC(F)(C(=O)O)CC4)ccn23)cc(OC(F)F)c1C(=O)NC1CC1 [Cpd 366, 1-[3-[3-[4-(cyclopropylcarbamoyl)-3-(difluoromethoxy)-5-methoxy-phenyl]imidazo[1,2-a]pyridin-7-yl]oxypropyl]-4-fluoro-piperidine-4-carboxylic acid] | ++ (>1.5-4.5) | –
10 to 100 nM | 0.01 to 10 nM | 0.01 to 10 nM | 100 to 1000 nM | – | COc1cc(-c2cnc3cc(OCC(O)CN4CCC(O)CC4)ccn23)cc(OC(F)F)c1C(=O)NC1CC1 (stereo not shown) [compound 379, N-cyclopropyl-2-(difluoromethoxy)-4-[7-[2-hydroxy-3-(4-hydroxy-1-piperidyl)propoxy]imidazo [1,2-a]pyridin-3-yl]-6-methoxy-benzamide] | ++ (>1.5-4.5) | –
> 500 nM | 0.01 to 10 nM | 0.01 to 10 nM | – | 100 to 1000 nM | COc1cc(-c2cnc3cc(OCCN4C[C@@H]5C[C@H]4CO5)ccn23)cc2c1C(=O)N(CC(F)(F)F)CC2 [compound 245, 8-methoxy-6-[7-[2-[(1S,4S)-2-oxa-5-azabicyclo[2.2.1]heptan-5-yl]ethoxy]imidazo[1,2-a]pyridin-3-yl]-2-(2,2,2-trifluoroethyl)-3,4-dihydro isoquinolin-1-one] | +++ (>4.5) | –
